Experimental data: the supplement of paper PMC10307832

Experiments:
Assay in all cases: relative viability (nuclei count vs DMSO), 5 days (fraction); higher = more cells survive
GSK-J4 + Vorinostat = compound: CCOC(=O)CCNc1cc(N2CCc3ccccc3CC2)nc(-c2ccccn2)n1 [GSK-J4] + O=C(CCCCCCC(=O)Nc1ccccc1)NO [Vorinostat] (partner 1 µM)
Procedure, shortened: (§1)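 Lung cancer cell lines in 1536-well plates got either a single drug or a fixed anchor-drug dose together with five library-drug doses (not always all listed) in √10 steps, by pin tool, on the day after seeding. Nuclei were counted after 5 days, and relative viability is the treated-to-vehicle ratio of nuclei counts. Values are medians of duplicate plates.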

AZ3146 + Navitoclax = compound: CN1CCC(CC1)OC2=CC(=C(C=C2)NC3=NC=C4C(=N3)N(C(=O)N4C)C5CCCC5)OC [AZ3146] + CC1(C)CCC(c2ccc(Cl)cc2)=C(CN2CCN(c3ccc(C(=O)NS(=O)(=O)c4ccc(N[C@H](CCN5CCOCC5)CSc5ccccc5)c(S(=O)(=O)C(F)(F)F)c4)cc3)CC2)C1 [Navitoclax] (partner 0.5 µM)
Procedure, shortened: as §1

AZ3146 + Linsitinib = compound: CN1CCC(CC1)OC2=CC(=C(C=C2)NC3=NC=C4C(=N3)N(C(=O)N4C)C5CCCC5)OC [AZ3146] + C[C@]1(O)C[C@@H](c2nc(-c3ccc4ccc(-c5ccccc5)nc4c3)c3c(N)nccn32)C1 [Linsitinib] (partner 1 µM)
Procedure, shortened: as §1

GSK-J4 + OSI-027 = compound: CCOC(=O)CCNc1cc(N2CCc3ccccc3CC2)nc(-c2ccccn2)n1 [GSK-J4] + COc1cccc2cc(-c3nc([C@H]4CC[C@H](C(=O)O)CC4)n4ncnc(N)c34)[nH]c12 [OSI-027] (partner 0.5 µM)
Procedure, shortened: as §1

Cell Line | relative viability (GSK-J4 + Vorinostat; first compound 0.5 µM) | relative viability (GSK-J4 + Vorinostat; first compound 1.581 µM) | relative viability (GSK-J4 + Vorinostat; first compound 5 µM) | relative viability (GSK-J4 + Vorinostat; first compound 15.81 µM) | relative viability (GSK-J4 + Vorinostat; first compound 50 µM) | relative viability (AZ3146 + Navitoclax; first compound 0.08 µM) | relative viability (AZ3146 + Navitoclax; first compound 0.253 µM) | relative viability (AZ3146 + Navitoclax; first compound 0.8 µM) | relative viability (AZ3146 + Navitoclax; first compound 2.53 µM) | relative viability (AZ3146 + Navitoclax; first compound 8 µM) | relative viability (AZ3146 + Linsitinib; first compound 0.08 µM) | relative viability (AZ3146 + Linsitinib; first compound 0.253 µM) | relative viability (AZ3146 + Linsitinib; first compound 0.8 µM) | relative viability (AZ3146 + Linsitinib; first compound 2.53 µM) | relative viability (AZ3146 + Linsitinib; first compound 8 µM) | relative viability (GSK-J4 + OSI-027; first compound 0.5 µM) | relative viability (GSK-J4 + OSI-027; first compound 1.581 µM) | relative viability (GSK-J4 + OSI-027; first compound 5 µM) | relative viability (GSK-J4 + OSI-027; first compound 15.81 µM) | relative viability (GSK-J4 + OSI-027; first compound 50 µM)
201T | 0.927 | 0.828 | 0.939 | 0.896 | 0.891 | 1.19 | 1.2 | 1.16 | 1.27 | 1.2 | 0.876 | 1.06 | 1.05 | 1.05 | 1.06 | 0.668 | 0.414 | 0.932 | 0.691 | 0.721
A549 | – | – | – | – | – | 1.12 | 1.29 | 1.23 | 0.467 | 0.0543 | 0.653 | 0.653 | 0.593 | 0.571 | 0.51 | – | – | – | – | –
A-427 | 0.814 | 0.518 | – | 0.785 | 0.393 | 0.96 | 0.967 | 0.957 | 0.98 | 0.943 | 1.08 | 1.07 | 1.04 | 1.19 | 1.12 | 0.536 | – | 0.439 | 0.396 | 0.198
ABC-1 | 1.2 | 1.31 | 0.879 | 0.704 | 0.555 | – | – | – | – | – | 0.83 | 0.71 | 0.861 | 0.855 | 0.977 | 0.533 | 0.442 | 0.441 | 0.357 | 0.336
BEN | 0.559 | 0.46 | 0.511 | 0.571 | 0.505 | – | 0.0708 | 0.0628 | 0.0467 | 0.176 | – | 0.919 | 0.703 | 1.01 | 0.843 | 0.334 | 0.249 | – | 0.315 | 0.212
CAL-12T | 0.723 | 0.693 | 0.874 | 0.689 | 0.682 | 1.21 | 1.28 | 1.24 | 1.32 | 1.17 | 0.867 | 0.756 | 0.824 | 0.885 | 0.932 | 0.631 | 0.646 | 0.778 | 0.61 | 0.528
COR-L23 | 0.474 | 0.442 | – | 0.413 | 0.361 | 1.05 | 1.08 | 0.984 | 1.03 | 0.923 | 0.771 | 1.04 | 0.852 | 1.1 | 0.884 | 0.753 | 0.603 | – | 0.733 | 0.625
COR-L 105 | 0.899 | – | 0.833 | 0.843 | 0.526 | 0.805 | 0.712 | 0.745 | 0.791 | 0.711 | 0.963 | 1.2 | 0.891 | 0.888 | 0.787 | 0.631 | 0.64 | 0.546 | 0.585 | 0.692
Calu-6 | – | – | – | – | – | 0.781 | 0.952 | 0.763 | 0.665 | 0.278 | 0.925 | 0.925 | 0.928 | 0.948 | 0.971 | – | – | – | – | –
ChaGo-K-1 | 0.785 | – | 0.619 | 0.673 | 0.668 | 1 | 1 | 0.897 | 0.996 | 0.672 | – | – | – | – | – | 0.591 | 0.419 | 0.441 | 0.533 | 0.428
EBC-1 | – | – | – | – | – | 0.499 | 0.464 | 0.426 | 0.412 | 0.229 | 0.906 | 0.707 | 0.899 | 0.879 | 0.991 | – | – | – | – | –
EKVX | 0.686 | – | 0.808 | – | 0.524 | 0.817 | 0.907 | 0.898 | 1.02 | 1.16 | 0.945 | 1 | 0.819 | 1.09 | 0.95 | 0.673 | 0.412 | 0.619 | 0.6 | 0.567
EMC-BAC-2 | 0.494 | 0.497 | – | 0.364 | 0.457 | 1.07 | 1.23 | 1.25 | 1.21 | 1.26 | 0.81 | 0.756 | 0.836 | 0.791 | 0.82 | 0.347 | 0.386 | 0.249 | 0.315 | 0.311
EPLC-272H | 0.461 | 0.37 | 0.599 | 0.335 | 0.284 | 0.985 | 0.98 | 1.05 | 1.37 | 1.19 | 0.988 | 1.07 | 1.16 | 1.07 | 1.24 | 0.313 | 0.255 | 0.261 | 0.293 | 0.192
H3255 | 0.716 | – | 0.656 | 0.742 | 0.742 | 0.527 | 0.35 | 0.582 | 0.628 | 0.467 | 0.9 | 0.987 | 0.961 | 0.998 | 0.902 | 0.616 | 0.545 | 0.627 | 0.529 | 0.531
HARA | 0.554 | 0.498 | – | 0.311 | 0.246 | 1.13 | 1.08 | 1.13 | 1.13 | 1.11 | 0.821 | 0.95 | 1.01 | 0.993 | 0.935 | 0.548 | – | – | 0.282 | 0.219
HCC-15 | 0.903 | 0.791 | 0.789 | 0.718 | 0.503 | 0.725 | 0.659 | 0.703 | 0.718 | 0.727 | 0.815 | 0.946 | 0.874 | 0.879 | 0.879 | 0.722 | – | 0.634 | 0.469 | 0.285
HCC-44 | 1.01 | 1.09 | 1.09 | 1.14 | 1.16 | 0.877 | 1.04 | 0.985 | 1.01 | 1.01 | 0.598 | 0.618 | 0.685 | 0.718 | 0.675 | 0.51 | 0.31 | – | 0.387 | 0.483
